Key:
[1] = molecular target: T1, p110δ (Homo sapiens, UniProt O00329); settings: cited from earlier work
T1 sequence (O00329 1-1044): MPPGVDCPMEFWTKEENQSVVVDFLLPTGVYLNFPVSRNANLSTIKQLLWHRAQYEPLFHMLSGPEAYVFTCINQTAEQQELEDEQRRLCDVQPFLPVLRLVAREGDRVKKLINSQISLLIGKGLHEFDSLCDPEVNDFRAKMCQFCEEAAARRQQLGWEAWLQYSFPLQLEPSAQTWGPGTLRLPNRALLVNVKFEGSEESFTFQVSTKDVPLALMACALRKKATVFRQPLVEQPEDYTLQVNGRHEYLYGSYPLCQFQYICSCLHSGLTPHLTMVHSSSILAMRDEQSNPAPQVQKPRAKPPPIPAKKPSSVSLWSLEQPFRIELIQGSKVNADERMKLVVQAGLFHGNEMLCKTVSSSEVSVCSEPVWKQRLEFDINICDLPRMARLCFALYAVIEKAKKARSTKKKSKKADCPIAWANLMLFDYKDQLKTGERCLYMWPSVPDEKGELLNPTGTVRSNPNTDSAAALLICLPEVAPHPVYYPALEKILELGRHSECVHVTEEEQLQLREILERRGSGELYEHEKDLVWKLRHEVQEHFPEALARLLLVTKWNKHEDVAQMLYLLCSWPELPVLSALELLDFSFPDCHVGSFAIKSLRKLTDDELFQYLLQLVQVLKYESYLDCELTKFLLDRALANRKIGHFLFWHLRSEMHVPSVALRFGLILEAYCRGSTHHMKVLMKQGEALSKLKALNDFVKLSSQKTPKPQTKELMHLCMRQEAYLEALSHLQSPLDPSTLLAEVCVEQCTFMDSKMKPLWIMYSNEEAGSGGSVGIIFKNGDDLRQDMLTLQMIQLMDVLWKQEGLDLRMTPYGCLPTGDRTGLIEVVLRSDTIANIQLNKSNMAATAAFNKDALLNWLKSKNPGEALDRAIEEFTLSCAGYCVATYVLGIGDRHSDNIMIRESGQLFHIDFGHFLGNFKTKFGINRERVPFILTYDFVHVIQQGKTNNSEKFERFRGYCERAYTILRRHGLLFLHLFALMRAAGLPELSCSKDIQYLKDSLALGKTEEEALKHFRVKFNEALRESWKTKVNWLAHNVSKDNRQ

[2] = test system: protein kinases; settings: cited from earlier work
[3] = test system: murine model of asthma; settings: ovalbumin-induced airway inflammation; cited from earlier work
[4] = test system: mouse model of rheumatoid arthritis; settings: in vivo; cited from earlier work
[5] = test system: model of systemic lupus erythematosis; settings: in vivo; cited from earlier work
[6] = test system: human B cells; test: Human B cells proliferation stimulated by anti-IgM; format: cell-based; settings: B-cell; anti-Human IgM + CD40L-LZ, 72 h, 3H thymidine
Experimental: Human B Cells Proliferation Stimulate by Anti-IgM
Isolate PBMCs from Leukopac or from human fresh blood. Isolate human B cells by using Miltenyi protocol and B cell isolation kit II.—human B cells were Purified by using AutoMacs.column.
Activation of Human B Cells
Use 96 well Flat bottom plate, plate 50000/well purified B cells in B cell proliferation medium (DMEM+5% FCS, 10 mM Hepes, 50 μM 2-mercaptoethanol); 150 μL medium contain 250 ng/mL CD40L-LZ recombinant protein (Amgen) and 2 μg/mL anti-Human IgM antibody (Jackson ImmunoReseach Lab.# 109-006-129), mixed with 50 μL B cell medium containing PI3K inhibitors and incubate 72 h at 37° C. incubator. After 72 h, pulse labeling B cells with 0.5-1 uCi/well ^3H thymidine for overnight ˜18 h, and harvest cell using TOM harvester.

Cc1ccccc1-n1c(Cn2cnc3c(N)ncnc32)nc2cccc(C)c2c1=O [IC87114]
inhibition of p110δ [1]: high nanomolar range (triple digit)
activity against any protein kinases tested [2]: no activity
inflammation and disease in murine model of asthma [3]: significantly ameliorate inflammation and disease

O=C1NC(=O)/C(=C\c2ccc3nccnc3c2)S1 [AS 605240]
efficacy in mouse model of rheumatoid arthritis [4]: efficacious
onset of disease in model of systemic lupus erythematosis [5]: delay onset of disease

Cn1cc(-c2nn(Cc3cc4c(Cl)cccc4nc3-c3ccccc3Cl)c3ncnc(N)c23)cn1 [Example 26, 1-((5-chloro-2-(2-chlorophenyl)quinolin-3-yl)methyl)-3-(1-methyl-1H-pyrazol-4-yl)-1H-pyrazolo[3,4-d]pyrimidin-4-amine]
IC50 [6]: 46.7 nM

Cc1cccc2nc(Cn3nc(C#N)c4c(N)ncnc43)c(-c3ccccc3Cl)nc12 [4-Amino-1-((3-(2-chlorophenyl)-5-methylquinoxalin-2-yl)methyl)-1H-pyrazolo[3,4-d]pyrimidine-3-carbonitrile]
IC50 [6]: 1.99 nM

Cc1cccc2nc(Cn3nc(I)c4c(N)ncnc43)c(-c3cccc(F)c3)c(=O)n12 [2-((4-amino-3-iodo-1H-pyrazolo[3,4-d]pyrimidin-1-yl)-methyl)-3-(3-fluorophenyl)-6-methyl-4H-pyrido[1,2-a]pyrimidin-4-one]
IC50 [6]: 512 nM

Nc1ncnc2c1c(I)nn2Cc1nc2c(F)cccc2nc1-c1ccccc1Cl [1-((3-(2-Chlorophenyl)-8-fluoroquinoxalin-2-yl)methyl)-3-iodo-1H-pyrazolo[3,4-d]pyrimidin-4-amine]
IC50 [6]: 818 nM

Source: patent publication US7919498B2, “Substituted pyrazolo[3,4-d]pyrimidines as PI3K inhibitors” (Amgen Inc., priority 2007, dated 2011)
